Measured values reported in patent US4560758A, “Process for preparing pyrrolo[1,2-a]imidazoles and imidazo[1,2-a]pyridines” (Pennwalt Corporation, priority 1984, dated 1985).
“And” between values parts separate entries of the source, which are not always exact repeats. Identical values can stand only once. Counter-ions that a name gives are not always drawn.

How the values were obtained:
[1] = system: antibody secreting cells in the spleen; assay: Kennedy Plaque Assay (humoral immune system depressed by 6-mercaptopurine; number of plaques); format: in vivo; conditions: ip; 60 mg/Kg of 6 MP plus 6.25 mg/Kg (i.p.) of compound; read-out: Percent Restoration (+) or Suppression (-)
Protocol: In this assay, in which the in vitro model used was the Kennedy modification of the Jerne (or plaque) technique (J. C. Kennedy et al, Immunol., 20, p. 253 (1971)), the animal's humoral immune system is depressed artificially by the known immunosuppressant drug, 6-mercaptopurine (6-MP), and then the ability of a drug to either suppress it further or restore it towards normal is evaluated. The change in the number of plaques, which is a direct correlate of the change in the number of antibody secreting cells in the spleen, is used to measure this effect. For example, the compound of Example 11 results in greater than 100% restoration of the number of plaques and thus causes an immunoenhancement of the humoral system. In contrast, the compound of Example 28 results in about 24% further suppression of the number of plaques and thus behaves as an immunosuppressant.
of 6 MP plus 6.25 mg/Kg (i.p.)
^1 without 6MP treatment
^2 percent change from control (i.e., without 6MP)

[2] = system: carrageenan-induced paw edemas; assay: Anti-inflammatory assay, carrageenan-induced paw edema; format: in vivo, Male, Sprague-Dawley rats
Protocol: The anti-inflammatory properties of various compounds of this invention were determined by carrageenan-induced paw edemas of test rats. Male, Sprague-Dawley rats (Blue Spruce Farm) were ordered at 125-140 g, housed for one week, and allowed food and water ad libitum. At the time of the experiments, only rats weighing 160-200 g were used.
All compounds were dissolved or suspended in a 0.5% water solution of Methocel and orally administered to groups of six rats each. Control rats received Methocel only. Two hours later (unless otherwise stated), paw edema was induced by subcutaneous injection into the plantar surface of the right hind paw of 0.1 ml of a 1.0% homogenized suspension of carrageenan.
Immediately, the volume of the paw was measured by immersing it in mercury to above the lateral mateolus. The mercury in a glass cylinder 25 mm in diameter and 60 mm deep was connected at the bottom on the cylinder by a column of water to a Statham transducer (model P23BB), range 0-5 cm of mercury pressure. The volume was recorded electronically on a Beckman recorder, R511. Three hours later, the inflamed paw volume was measured again, and the change in volume was recorded for each group. The percent inhibition of edema was calculated using the control group paw volume as 100% edema, i.e., as (the change in edema in the control group less the change in edema in the test group) times 100 divided by the change in edema in the control group.

mouse hepatitis virus = assay: Antiviral assay - hepatitis in mice; format: in vivo; conditions: once daily for 3 days; for Mean Liver Score: day 4, 0 (normal) to 4 (extreme discoloration); for Percent Survival: day 21
Protocol: Female mice weighing approximately 21-24 grams were inoculated with 0.1 ml of a mouse liver suspension containing mouse hepatitis virus, which liver suspension is at a dilution of 10^-5.5. Starting twenty-four hours post-virus inoculation, the animals were intraperitoneally ("i.p.") or orally administered the test compound(s) once daily for 3 days. On day 4, one third to one half of each group of mice were sacrificed and their liver removed for examination. Each liver was scored and assigned a number from 0 (normal liver) to 4 (extreme discoloration). The mean liver score per group was computed. The number of animals surviving until termination of the study (day 21) was also recorded. Anti-hepatitis activity is evidenced by increased survivor numbers and improved liver scores.

## Clc1cccc(Cl)c1SC1CCCN2CC(c3ccccc3)N=C12 (centres unmarked) [Example 20, 2,3,5,6,7,8-Hexahydro-2-phenyl-8-(2,6-dichlorophenylthio)imidazo[1,2-a]pyridine hydrochloride]
[1]
  change in vivo at 6.25 mg/kg: -49%
[2]; 100 mg/Kg p.o., dosed two hours before carrageenan, hydrochloride
  Percent Inhibition of carrageenan induced edema: 33.3% and 39.6%

## COC1(OC)CCCN2CC(c3ccccc3)N=C21 (centres unmarked) [Example 23, 2,3,5,6,7,8-Hexahydro-2-phenyl-8,8-dimethoxyimidazo [1,2-a]pyridine hydrochloride]
[1]
  change in vivo at 6.25 mg/kg: 64%
[2]; 50 mg/Kg p.o., 20 hrs. predosed
  Percent Inhibition of carrageenan induced edema: 32.1%
[2]; 50 mg/Kg p.o., dosed two hours before carrageenan
  Percent Inhibition of carrageenan induced edema: -3.2%
Mouse hepatitis virus; 6.25 mg/Kg i.p., control 2.6
  Mean Liver Score: 1.7
Mouse hepatitis virus; 6.25 mg/Kg i.p., control 5%
  Percent Survival: 40%
Mouse hepatitis virus; 12.5 mg/Kg i.p., control 2.6 (Examples 11, 16, 23), 3.4 (25, 26)
  Mean Liver Score: 1.0
Mouse hepatitis virus; 12.5 mg/Kg i.p., control 5% (Examples 11, 16, 23), 6% (25, 26)
  Percent Survival: 70%
Mouse hepatitis virus; 25 mg/Kg i.p., control 2.6 (Examples 11, 23), 3.4 (25, 26)
  Mean Liver Score: 1.3
Mouse hepatitis virus; 25 mg/Kg i.p., control 5% (Examples 11, 23), 6% (25, 26)
  Percent Survival: 50%
